Assay results published in EP4707277A1, “NOVEL HETEROCYCLIC AMINE DERIVATIVES AND PHARMACEUTICAL COMPOSITION COMPRISING SAME” (Daewoong Pharmaceutical Co., Ltd., priority 2023, dated 2024).
Read-outs that look alike come from different tables or passages of the source.

Experiments:
BTK = target: T1, BTK (Homo sapiens, UniProt Q06187); experiment: Inhibitory activity against BTK, ADP-Glo Kinase system (Promega); type: biochemical
T1 construct: purchased Signalchem B10-10H
Outline: (§1)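 ADP-Glo luminescent ADP detection with recombinant human ITK (4 ng/reaction) or BTK (10 ng/reaction) and poly(Glu4,Tyr1) substrate at 0.2 µg/µl. Buffer: Tris pH 7.5, MgCl2, MnCl2, BSA, DTT. ATP 1 mM or Km (BTK 10 µM, ITK 25 µM); 1% DMSO; 1 h at 30°C; IC50 from curve fit.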

ITK = target: T2, ITK (Homo sapiens, UniProt Q08881); experiment: Inhibitory activity against ITK, ADP-Glo Kinase system (Promega); type: biochemical
T2 construct: purchased Signalchem I13-11G-10
T2 sequence (Q08881 1-620): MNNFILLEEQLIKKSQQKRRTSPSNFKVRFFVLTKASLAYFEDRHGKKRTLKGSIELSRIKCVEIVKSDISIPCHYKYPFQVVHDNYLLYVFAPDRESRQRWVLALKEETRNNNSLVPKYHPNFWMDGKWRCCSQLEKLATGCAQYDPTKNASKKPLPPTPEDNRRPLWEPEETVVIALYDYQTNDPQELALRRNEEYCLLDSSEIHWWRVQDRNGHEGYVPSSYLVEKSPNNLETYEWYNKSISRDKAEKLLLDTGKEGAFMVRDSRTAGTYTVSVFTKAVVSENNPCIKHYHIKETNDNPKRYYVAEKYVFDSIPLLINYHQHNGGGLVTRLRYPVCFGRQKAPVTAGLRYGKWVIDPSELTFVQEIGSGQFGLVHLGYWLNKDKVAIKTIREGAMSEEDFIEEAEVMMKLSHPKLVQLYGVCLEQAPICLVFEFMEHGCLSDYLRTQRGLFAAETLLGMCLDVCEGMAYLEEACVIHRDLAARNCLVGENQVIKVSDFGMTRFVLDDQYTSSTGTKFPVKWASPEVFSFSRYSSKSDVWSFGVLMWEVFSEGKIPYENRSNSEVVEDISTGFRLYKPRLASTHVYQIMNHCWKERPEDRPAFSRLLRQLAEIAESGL
Outline: as §1

[1] = 1mM ATP, read-out: BTK IC50(nM) 1mM ATP
[2] = 1mM ATP, read-out: ITK IC50(nM) 1mM ATP
[3] = Km ATP (BTK: 10 uM), read-out: BTK IC50(nM) Km ATP
[4] = Km ATP (ITK: 25uM), read-out: ITK IC50(nM) Km ATP

T1 sequence (Q06187 whole entry): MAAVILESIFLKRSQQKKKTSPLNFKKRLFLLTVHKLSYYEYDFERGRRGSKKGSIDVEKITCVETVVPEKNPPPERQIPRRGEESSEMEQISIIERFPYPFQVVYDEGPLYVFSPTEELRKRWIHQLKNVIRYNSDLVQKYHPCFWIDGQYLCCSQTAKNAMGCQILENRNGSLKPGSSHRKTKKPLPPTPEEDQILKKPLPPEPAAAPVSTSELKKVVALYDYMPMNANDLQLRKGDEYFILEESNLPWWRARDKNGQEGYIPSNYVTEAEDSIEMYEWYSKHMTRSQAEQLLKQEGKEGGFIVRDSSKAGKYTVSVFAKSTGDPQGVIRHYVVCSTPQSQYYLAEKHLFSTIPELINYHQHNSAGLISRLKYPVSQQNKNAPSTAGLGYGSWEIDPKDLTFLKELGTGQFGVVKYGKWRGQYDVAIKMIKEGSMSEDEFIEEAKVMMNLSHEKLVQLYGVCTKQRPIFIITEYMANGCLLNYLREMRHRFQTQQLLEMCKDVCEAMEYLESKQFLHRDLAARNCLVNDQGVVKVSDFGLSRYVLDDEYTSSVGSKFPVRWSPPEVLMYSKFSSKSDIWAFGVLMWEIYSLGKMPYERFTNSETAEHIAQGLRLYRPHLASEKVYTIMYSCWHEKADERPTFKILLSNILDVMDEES

Structure (SMILES) | IC50 (BTK; [1]) [nM] | IC50 (ITK; [2]) [nM] | IC50 (BTK; [3]) [nM] | IC50 (ITK; [4]) [nM]
C=CC(=O)N1C[C@H](F)[C@H](Oc2nc(Nc3ncc(C)s3)cc3c2ccn3CC(C)CC)C1 (stereo partly drawn) [Example 171, 1-((3S,4R)-3-fluoro-4-((1-(2-methylbutyl)-6-((5-methylthiazol-2-yl)amino)-1H-pyrrolo[3,2-c]pyridin-4-yl)oxy)pyrrolidin-1-yl)prop-2-en-1-one] | ≤ 20 | ≤ 20 |  | 
C=CC(=O)N1C[C@@H](Oc2nc(Nc3ncc(C)s3)cc3c2ccn3C2CCCC2)C[C@@H]1C [Example 164, 1-((2S,4S)-4-((1-cyclopentyl-6-((5-methylthiazol-2-yl)amino)-1H-pyrrolo[3,2-c]pyridin-4-yl)oxy)-2-methylpyrrolidin-1-yl)prop-2-en-1-one] | 20 to 100 | 100 to 500 |  | 
C/C=C/C(=O)N1CC[C@H](Oc2nc(Nc3ncc(C)s3)cc3c2ccn3CC(C)C)C1 [Example 226, (S,E)-1-(3-((1-isobutyl-6-((5-methylthiazol-2-yl)amino)-1H-pyrrolo[3,2-c]pyridin-4-yl)oxy)pyrrolidin-1-yl)but-2-en-1-one] | > 500 | > 500 |  | 
C=CC(=O)N1CC(C)C(Oc2nc(Nc3ncc(C)s3)cc3c2ccn3CC(C)C)C1 (centres unmarked) [Example 116, 1-(3-((1-isobutyl-6-((5-methylthiazol-2-yl)amino)-1H-pyrrolo[3,2-c]pyridin-4-yl)oxy)-4-methylpyrrolidin-1-yl)prop-2-en-1-one] |  |  | ≤ 20 | ≤ 20
C=CC(=O)N1CCC[C@H]1COc1nc(Nc2ncc(C)s2)cc2c1ccn2C(C)C [Example 219, (S)-1-(2-(((1-isopropyl-6-((5-methylthiazol-2-yl)amino)-1H-pyrrolo[3,2-c]pyridin-4-yl)oxy)methyl)pyrrolidin-1-yl)prop-2-en-1-one] | 20 to 100 | > 500 |  | 
C=CC(=O)N1C2C=C(c3nc(Nc4ncc(C)s4)cc4c3ccn4CC(F)F)CC1CC2 (centres unmarked) [Example 34, 1-(3-(1-(2,2-difluoroethyl)-6-((5-methylthiazol-2-yl)amino)-1H-pyrrolo[3,2-c]pyridin-4-yl)-8-azabicyclo[3.2.1]oct-2-en-8-yl)prop-2-en-1-one] | ≤ 20 | 20 to 100 | ≤ 20 | ≤ 20
C=CC(=O)N1CC(F)(F)C[C@@H]1COc1nc(Nc2ncc(C)s2)cc2c1ccn2C(C)C [Example 93, (R)-1-(4,4-difluoro-2-(((1-isopropyl-6-((5-methylthiazol-2-yl)amino)-1H-pyrrolo[3,2-c]pyridin-4-yl)oxy)methyl)pyrrolidin-1-yl)prop-2-en-1-one] | ≤ 20 | ≤ 20 |  | 
C=CC(=O)N1C[C@@H](Oc2nc(Nc3ncc(C)s3)cc3c2ccn3CC)C[C@@H]1C [Example 186, 1-((2S,4S)-4-((1-ethyl-6-((5-methylthiazol-2-yl)amino)-1H-pyrrolo[3,2-c]pyridin-4-yl)oxy)-2-methylpyrrolidin-1-yl)prop-2-en-1-one] | ≤ 20 | ≤ 20 |  | 
C=CC(=O)N1CCC1COc1nc(Nc2ncc(C)s2)cc2c1ccn2C1CCCC1 (centres unmarked) [Example 218, 1-(2-(((1-cyclopentyl-6-((5-methylthiazol-2-yl)amino)-1H-pyrrolo[3,2-c]pyridin-4-yl)oxy)methyl)azetidin-1-yl)prop-2-en-1-one] | ≤ 20 | ≤ 20 |  | 
C=CC(=O)N1CCC=C(c2nc(Nc3ncc(C)s3)cc3c2ccn3C(C)C)CC1 [Example 26, 1-(4-(1-isopropyl-6-((5-methylthiazol-2-yl)amino)-1H-pyrrolo[3,2-c]pyridin-4-yl)-2,3,6,7-tetrahydro-1H-azepin-1-yl)prop-2-en-1-one] |  |  | ≤ 20 | ≤ 20
C=CC(=O)N1CC=C(c2nc(Nc3cc(C)ccn3)cc3c2ccn3C(C)C)CC1 [Example 49, 1-(4-(1-isopropyl-6-((4-methylpyridin-2-yl)amino)-1H-pyrrolo[3,2-c]pyridin-4-yl)-3,6-dihydropyridin-1(2H)-yl)prop-2-en-1-one] | 100 to 500 | 100 to 500 | 20 to 100 | 20 to 100
